Molecules are shown by their SMILES. pIC50: −log10 of the molar value.

The test concerns KRAS PDC multicell spheroid viability. Put plainly: Anticancer human tumor 825966-067-R-J1-PDC patient-derived colon carcinoma cell line growth inhibition [KRAS2]. As to conditions: for viability, T/C: stronger effect = lower value. A digest of the protocol: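 KRAS-mutant tumor cells were grown as spheroids with HUVEC endothelial cells and human MSCs as stroma. Targeted agents were tested alone and with KRAS pathway inhibitors. Doses started at or near clinical Cmax, or 10 microM, descending half-log.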

Setting [1] is: curve of first compound, second compound 0.1 µM.
Setting [2] is: curve of first compound, second compound 0.316 µM.
The mark [3] stands for this setting: curve of first compound, second compound 1 µM.
Where [4] appears, read: curve of first compound, second compound 3.16 µM.
[5] abbreviates: second compound 0.1 µM, first compound 0.0316 µM.
Where [6] appears, read: second compound 0.1 µM, first compound 0.1 µM.
Setting [7] is: second compound 0.1 µM, first compound 0.316 µM.
[8] abbreviates: second compound 0.1 µM, first compound 1 µM.
Setting [9] is: second compound 0.1 µM, first compound 3.16 µM.
[10] abbreviates: second compound 0.1 µM, first compound 10 µM.
Setting [11] is: second compound 0.316 µM, first compound 0.0316 µM.
The mark [12] stands for this setting: second compound 0.316 µM, first compound 0.1 µM.
Setting [13] is: second compound 0.316 µM, first compound 0.316 µM.
Where [14] appears, read: second compound 0.316 µM, first compound 1 µM.
Where [15] appears, read: second compound 0.316 µM, first compound 3.16 µM.
[16] abbreviates: second compound 0.316 µM, first compound 10 µM.
Where [17] appears, read: second compound 1 µM, first compound 0.0316 µM.
[18] abbreviates: second compound 1 µM, first compound 0.1 µM.
The mark [19] stands for this setting: second compound 1 µM, first compound 0.316 µM.
Setting [20] is: second compound 1 µM, first compound 1 µM.
The mark [21] stands for this setting: second compound 1 µM, first compound 3.16 µM.
Where [22] appears, read: second compound 1 µM, first compound 10 µM.
Setting [23] is: second compound 3.16 µM, first compound 0.0316 µM.
Where [24] appears, read: second compound 3.16 µM, first compound 0.1 µM.
[25] abbreviates: second compound 3.16 µM, first compound 0.316 µM.
Where [26] appears, read: second compound 3.16 µM, first compound 1 µM.
Setting [27] is: second compound 3.16 µM, first compound 3.16 µM.
Where [28] appears, read: second compound 3.16 µM, first compound 10 µM.
Setting [29] is: curve of first compound, second compound 0.0316 µM.
[30] abbreviates: second compound 0.0316 µM, first compound 0.0316 µM.
Where [31] appears, read: second compound 0.0316 µM, first compound 0.1 µM.
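Further: spheroids exposed to compounds for 7 days.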
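Wherever viability, T/C is given: 100% = DMSO vehicle control viability.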

As for `COc1cc2nccc(Oc3ccc(NC(=O)C4(C(=O)Nc5ccc(F)cc5)CC4)cc3)c2cc1OC` + CNCc1ccccc1-c1csc(C(C)Nc2nc(C)nc3cc(OC)c(OC)cc23)c1, the negative logarithm of the IC50 (pIC50) is 5.76 under setting [1]; 5.76 under setting [2]; 5.73 under setting [3]; 6.72 under setting [4]; greater than 7.50 (curve of first compound, second compound 10 µM). Besides, the viability, T/C is, setting by setting: under setting [5], 86.2%; under setting [6], 124%; under setting [7], 94%; under setting [8], 91.2%; under setting [9], 4.92%; under setting [10], 6.89%. Further, the viability, T/C reads like this: under setting [11], 74.8%; under setting [12], 98.7%; under setting [13], 94%; under setting [14], 97.8%; under setting [15], 3.71%; under setting [16], 4.44%. Besides, the viability, T/C by setting is: under setting [17], 97.9%; under setting [18], 117%; under setting [19], 104%; under setting [20], 122%; under setting [21], 0.94%; under setting [22], 0.47%. For the same compound, the viability, T/C was 113% under setting [23]; 59.8% under setting [24]; 53.4% under setting [25]; 1.03% under setting [26]; 0.6% under setting [27]; 0.24% under setting [28]. The viability, T/C (second compound 10 µM, first compound 0.0316 µM) was 0.28%; the viability, T/C (second compound 10 µM, first compound 0.1 µM) is 0.32%; the viability, T/C (second compound 10 µM, first compound 0.316 µM) is 0.24%; the viability, T/C (second compound 10 µM, first compound 1 µM) is 0.18%; the viability, T/C (second compound 10 µM, first compound 3.16 µM) is 0.17%; the viability, T/C (second compound 10 µM, first compound 10 µM) is 0.29%.

On to `CC(C)NCC(C(=O)N1CCN(c2ncnc3c2C(C)CC3O)CC1)c1ccc(Cl)cc1` (configuration not stated) + C=CC(=O)N1CCN(c2nc(OCC3CCCN3C)nc3c2CCN(c2cccc4cccc(C)c24)C3)CC1CC#N, for which the pIC50 is, setting by setting: under setting [29], 5.66; under setting [1], 5.61; under setting [2], 5.67; under setting [3], 5.73; under setting [4], 6.35. The viability, T/C is, setting by setting: under setting [30], 105%; under setting [31], 114%; (second compound 0.0316 µM, first compound 0.316 µM) 131%; (second compound 0.0316 µM, first compound 1 µM) 94.2%; (second compound 0.0316 µM, first compound 3.16 µM) 29.3%; (second compound 0.0316 µM, first compound 10 µM) 10.8%. The viability, T/C reads like this: under setting [5], 83.8%; under setting [6], 99.2%; under setting [7], 126%; under setting [8], 126%; under setting [9], 32.3%; under setting [10], 9.94%. Further, the viability, T/C was 87.7% under setting [11]; 118% under setting [12]; 137% under setting [13]; 101% under setting [14]; 23.3% under setting [15]; 9.48% under setting [16]. Further, the viability, T/C under setting [17] is 86.9%; the viability, T/C under setting [18] is 98.3%; the viability, T/C under setting [19] is 124%; the viability, T/C under setting [20] was 88.1%; the viability, T/C under setting [21] was 17.6%; the viability, T/C under setting [22] was 5.49%. The viability, T/C is 84.5% under setting [23]; 56.9% under setting [24]; 66% under setting [25]; 13.9% under setting [26]; 2.27% under setting [27]; 0.81% under setting [28].

`Cn1ncnc1[C@H]1c2n[nH]c(=O)c3cc(F)cc(c23)N[C@@H]1c1ccc(F)cc1` + C=CC(=O)N1CCN(c2nc(OCC3CCCN3C)nc3c2CCN(c2cccc4cccc(C)c24)C3)CC1CC#N: the negative logarithm of the IC50 (pIC50) by setting is: under setting [29], less than 7.00; under setting [1], less than 7.00; under setting [2], less than 7.00; under setting [3], less than 7.00; under setting [4], less than 7.00. Also, the viability, T/C (second compound 0.0316 µM, first compound 0.000316 µM) was 108%; the viability, T/C (second compound 0.0316 µM, first compound 0.001 µM) is 108%; the viability, T/C (second compound 0.0316 µM, first compound 0.00316 µM) was 91.5%; the viability, T/C (second compound 0.0316 µM, first compound 0.01 µM) was 78%; the viability, T/C under setting [30] is 85.2%; the viability, T/C under setting [31] is 82.5%. For the same compound, the viability, T/C is 86.3% (second compound 0.1 µM, first compound 0.000316 µM); 106% (second compound 0.1 µM, first compound 0.001 µM); 119% (second compound 0.1 µM, first compound 0.00316 µM); 80% (second compound 0.1 µM, first compound 0.01 µM); 81.5% under setting [5]; 77% under setting [6]. Further, the viability, T/C by setting is: (second compound 0.316 µM, first compound 0.000316 µM) 120%; (second compound 0.316 µM, first compound 0.001 µM) 103%; (second compound 0.316 µM, first compound 0.00316 µM) 133%; (second compound 0.316 µM, first compound 0.01 µM) 88.1%; under setting [11], 91.4%; under setting [12], 82.5%. For the same compound, the viability, T/C is 127% (second compound 1 µM, first compound 0.000316 µM); 103% (second compound 1 µM, first compound 0.001 µM); 98.6% (second compound 1 µM, first compound 0.00316 µM); 91.3% (second compound 1 µM, first compound 0.01 µM); 112% under setting [17]; 98.9% under setting [18]. Also, the viability, T/C is 86.5% (second compound 3.16 µM, first compound 0.000316 µM); 123% (second compound 3.16 µM, first compound 0.001 µM); 112% (second compound 3.16 µM, first compound 0.00316 µM); 120% (second compound 3.16 µM, first compound 0.01 µM); 84.6% under setting [23]; 102% under setting [24].

Regarding `CCNC(=O)CC1N=C(c2ccc(Cl)cc2)c2cc(OC)ccc2-n2c(C)nnc21` (configuration not stated), the viability, T/C (compound 10 µM) was 83.8% [middle of 5 runs]. For the same compound, the pIC50 (curve of compound) is less than 5.00.

Turning to `COc1cc2nccc(Oc3ccc(NC(=O)C4(C(=O)Nc5ccc(F)cc5)CC4)cc3)c2cc1OC`, the viability, T/C reads like this: (compound 0.0316 µM) 102% [middle of 5 runs]; (compound 0.316 µM) 86.7% [middle of 5 runs]; (compound 1 µM) 83.7% [middle of 5 runs]; (compound 3.16 µM) 8.3% [middle of 5 runs]; (compound 10 µM) 7.11% [middle of 5 runs]. In addition, the half-maximal inhibitory concentration (IC50) (curve of compound) was 1.75 µM [middle of 5 runs].

`COc1cc(OC)cc(N(CCNC(C)C)c2ccc3ncc(-c4cnn(C)c4)nc3c2)c1`: the viability, T/C reads like this: (compound 0.0316 µM) 92.5% [middle of 5 runs]; (compound 0.1 µM) 89.2% [middle of 5 runs]; (compound 0.316 µM) 91.1% [middle of 5 runs]; (compound 1 µM) 95.6% [middle of 5 runs].

One may read the pIC50 as the IC50 on a negative log10 scale, so that one unit is a factor of ten. As usually defined, the viability, T/C is the ratio of treated to control. In general, IC50 refers to the midpoint of a concentration-inhibition curve.

The record behind these values is PubChem BioAssay AID1963865 (Molecular Pharmacology Branch, DTP, NCI, 2024).
